Assay results reported in patent publication US11718633B2, “Indole compounds, process for the preparation and use thereof” (priority 2018, dated 2023).
Values after ≈ are worked out from the molar mass of the structure shown.

How the values were obtained:
[1] = tested on: TB aerosol lung infection model; settings: in vivo; cited from earlier work
[2] = tested on: drug-sensitive Mycobacterium tuberculosis strains; settings: drug-sensitive M. tuberculosis; cited from earlier work
Mtb. H37Rv = assay: Antibacterial susceptibility testing, broth microdilution MIC; format: cell-based, Mycobacterium tuberculosis; settings: M. tuberculosis H37Rv ATCC 27294, 7 days, 37° C., no visible growth; for MIC: Mycobacterium tuberculosis, ATCC 27294 / H37Rv, 168 h, read-out: MIC against mycobacterium tuberculosis Mtb. H37Rv
[3] = In vitro solubility in buffer at different pH (HPLC); settings: for solubility at 5 min: kinetic from dmso stock
physchem = settings: kinetic from dmso stock
[4] = pH 1.2, simulated gastric fluid

C[C@@H]1[C@H]2C[C@@H](C[C@H]1NC(=O)c1cc3c(F)cc(F)cc3[nH]1)C2(C)C [4,6-difluoro-N-((1R,2R,3R,5S)-2,6,6-trimethylbicyclo[3.1.1]heptan-3-yl)-1H-indole-2-carboxamide]
activity in the TB aerosol lung infection model (in words) [1]: excellent activity
MIC [2]: 0.012 µM (≈ 0.00399 µg/mL)
SI [2]: ≥ 16000

CC1(C)CCC(NC(=O)c2cc3ccccc3[nH]2)CC1 [Compound (a), N-(4,4-dimethylcyclohexyl)-1H-indole-2-carboxamide]
MIC (Mtb. H37Rv): 0.06 µg/mL (≈ 0.222 µM)

C[Si]1(C)CCC(NC(=O)c2cc3ccccc3[nH]2)CC1 [Compound (b), N-(1,1-dimethylsilinan-4-yl)-1H-indole-2-carboxamide]
MIC (Mtb. H37Rv): 0.03 µg/mL (≈ 0.105 µM)

C[Si]1(C)CCN(NC(=O)c2cc3ccccc3[nH]2)CC1 [Compound (c), N-(4,4-dimethyl-1,4-azasilinan-1-yl)-1H-indole-2-carboxamide]
MIC (Mtb. H37Rv): 2 µg/mL (≈ 6.96 µM)

C[Si]1(C)CCN(C(=O)c2cc3ccccc3[nH]2)CC1 [Compound (d), (4,4-dimethyl-1,4-azasilinan-1-yl)(1H-indol-2-yl)methanone]
MIC (Mtb. H37Rv): 32 µg/mL (≈ 117 µM)

C[Si]1(C)CCC(NC(=O)c2cc3c(Cl)cc(Cl)cc3[nH]2)CC1 [Compound (e), 4,6-dichloro-N-(1,1-dimethylsilinan-4-yl)-1H-indole-2-carboxamide]
MIC (Mtb. H37Rv): 0.03 µg/mL (≈ 0.0844 µM)

C[Si]1(C)CCN(NC(=O)c2cc3c(Cl)cc(Cl)cc3[nH]2)CC1 [Compound (f), 4,6-dichloro-N-(4,4-dimethyl-1,4-azasilinan-1-yl)-1H-indole-2-carboxamide]
aqueous solubility at the acidic pH (in words) [3]: good aqueous solubility
solubility at 5 min [3, 4]: 40.4 µM (≈ 14.4 µg/mL)
solubility at 5 min ([3]; pH 2.2, aqueous buffer): 26.3 µM (≈ 9.37 µg/mL)
solubility at 5 min ([3]; pH 4.5, aqueous buffer): 2.57 µM (≈ 0.916 µg/mL)
solubility at 5 min ([3]; pH 7.4, aqueous buffer): 2.57 µM (≈ 0.916 µg/mL)
solubility at 5 min ([3]; pH 10.2, aqueous buffer): 2.7 µM (≈ 0.962 µg/mL)
MIC (Mtb. H37Rv): 0.03 µg/mL (≈ 0.0842 µM)

C[Si]1(C)CCN(C(=O)c2cc3c(Cl)cc(Cl)cc3[nH]2)CC1 [Compound (g), (4,6-dichloro-1H-indol-2-yl)(4,4-dimethyl-1,4-azasilinan-1-yl)methanone]
MIC (Mtb. H37Rv): 16 µg/mL (≈ 46.9 µM)

CC1(C)CCN(NC(=O)c2cc3c(Cl)cc(Cl)cc3[nH]2)CC1 [Compound (h), 4,6-dichloro-N-(4,4-dimethylpiperidin-1-yl)-1H-indole-2-carboxamide]
solubility at 5 min (physchem; [4]): 41.1 µM (≈ 14 µg/mL)
solubility at 5 min (physchem; pH 2.2, aqueous buffer): 30 µM (≈ 10.2 µg/mL)
solubility at 5 min (physchem; pH 4.5, aqueous buffer): 8.6 µM (≈ 2.93 µg/mL)
solubility at 5 min (physchem; pH 7.4, aqueous buffer): 6.32 µM (≈ 2.15 µg/mL)
solubility at 5 min (physchem; pH 10.2, aqueous buffer): 8.67 µM (≈ 2.95 µg/mL)

C[Si]1(C)CCC(NC(=O)c2cc3c(F)cc(F)cc3[nH]2)CC1 [Compound (i), N-(1,1-dimethylsilinan-4-yl)-4,6-difluoro-1H-indole-2-carboxamide]
solubility at 5 min ([3]; pH 10.2, aqueous buffer): 9.03 µM (≈ 2.91 µg/mL)
MIC (Mtb. H37Rv): 0.03 µg/mL (≈ 0.093 µM)

C[Si]1(C)CCN(NC(=O)c2cc3c(F)cc(F)cc3[nH]2)CC1 [Compound (j), N-(4,4-dimethyl-1,4-azasilinan-1-yl)-4,6-difluoro-1H-indole-2-carboxamide]
aqueous solubility at the acidic pH (in words) [3]: good aqueous solubility
solubility at 5 min [3, 4]: 49.7 µM (≈ 16.1 µg/mL)
solubility at 5 min ([3]; pH 2.2, aqueous buffer): 31.3 µM (≈ 10.1 µg/mL)
solubility at 5 min ([3]; pH 4.5, aqueous buffer): 1.01 µM (≈ 0.327 µg/mL)
solubility at 5 min ([3]; pH 7.4, aqueous buffer): 1 µM (≈ 0.323 µg/mL)
solubility at 5 min ([3]; pH 10.2, aqueous buffer): 1.1 µM (≈ 0.356 µg/mL)
MIC (Mtb. H37Rv): 0.125 µg/mL (≈ 0.386 µM)

C[Si]1(C)CCN(C(=O)c2cc3c(F)cc(F)cc3[nH]2)CC1 [Compound (k), (4,6-difluoro-1H-indol-2-yl)(4,4-dimethyl-1,4-azasilinan-1-yl)methanone]
MIC (Mtb. H37Rv): 32 µg/mL (≈ 104 µM)

CC1(C)CCN(NC(=O)c2cc3c(F)cc(F)cc3[nH]2)CC1 [Compound (l), N-(4,4-dimethylpiperidin-1-yl)-4,6-difluoro-1H-indole-2-carboxamide]
solubility at 5 min (physchem; [4]): 49.6 µM (≈ 15.3 µg/mL)
solubility at 5 min (physchem; pH 2.2, aqueous buffer): 46.4 µM (≈ 14.3 µg/mL)
solubility at 5 min (physchem; pH 4.5, aqueous buffer): 17.3 µM (≈ 5.31 µg/mL)
solubility at 5 min (physchem; pH 7.4, aqueous buffer): 29.4 µM (≈ 9.04 µg/mL)
solubility at 5 min (physchem; pH 10.2, aqueous buffer): 21.4 µM (≈ 6.57 µg/mL)

C[Si]1(C)CCN(NC(=O)c2cc3c(Cl)cc(Cl)cc3[nH]2)CC1.Cl [Compound (m), 4,6-dichloro-N-(4,4-dimethyl-1,4-azasilinan-1-yl)-1H-indole-2-carboxamide hydrochloride]
aqueous solubility at the acidic pH (in words) [3]: good aqueous solubility
solubility at 5 min [3, 4]: 38.6 µM
solubility at 5 min ([3]; pH 2.2, aqueous buffer): 28.4 µM
solubility at 5 min ([3]; pH 4.5, aqueous buffer): 2.55 µM
solubility at 5 min ([3]; pH 7.4, aqueous buffer): 2.73 µM
solubility at 5 min ([3]; pH 10.2, aqueous buffer): 2.46 µM

CC1(C)CCN(NC(=O)c2cc3c(Cl)cc(Cl)cc3[nH]2)CC1.Cl [Compound (n), 4,6-dichloro-N-(4,4-dimethylpiperidin-1-yl)-1H-indole-2-carboxamide hydrochloride]
solubility at 5 min (physchem; [4]): 42.6 µM
solubility at 5 min (physchem; pH 2.2, aqueous buffer): 26.2 µM
solubility at 5 min (physchem; pH 4.5, aqueous buffer): 7.24 µM
solubility at 5 min (physchem; pH 7.4, aqueous buffer): 10.6 µM
solubility at 5 min (physchem; pH 10.2, aqueous buffer): 9.89 µM

CC1(C)CCC(NC(=O)c2cc3c(Cl)cc(Cl)cc3[nH]2)CC1 [NITD 304, reference compound]
Solubility in DMSO (standard solution) ([3]; DMSO @ 10 μM Concentration): Insoluble in DMSO @ 10 μM Concentration.
MIC against mycobacterium tuberculosis Mtb. H37Rv (Mtb. H37Rv): 0.06 µg/mL (≈ 0.177 µM)

CC1(C)CCC(NC(=O)c2cc3c(F)cc(F)cc3[nH]2)CC1 [NITD 349, reference compound]
Solubility pH 1.2 ([3]; buffer pH 1.2): 0.24 μM
Solubility pH 2.2 ([3]; buffer pH 2.2): 0.29 μM
Solubility pH 4.5 ([3]; buffer pH 4.5): 0.15 μM
Solubility pH 7.4 ([3]; buffer pH 7.4): 0.24 μM
Solubility pH 10.2 ([3]; buffer pH 10.2): 7.30 μM
MIC against mycobacterium tuberculosis Mtb. H37Rv (Mtb. H37Rv): 0.03 µg/mL (≈ 0.0979 µM)
